Measurements from BigSolDB 2.1.

O=C1C2C3C=CC(C3)C2C(=O)N1O (stereo not drawn)
solubility (mole fraction) (in 1,4-dioxane, 288.15 K): 0.0796 | solubility (mole fraction) (in 1,4-dioxane, 293.15 K): 0.0879 | solubility (mole fraction) (in 1,4-dioxane, 298.15 K): 0.0963 | solubility (mole fraction) (in 1,4-dioxane, 303.15 K): 0.107 | solubility (mole fraction) (in 1,4-dioxane, 308.15 K): 0.115 | solubility (mole fraction) (in 1,4-dioxane, 313.15 K): 0.128 | solubility (mole fraction) (in 1,4-dioxane, 318.15 K): 0.138 | solubility (mole fraction) (in 1,4-dioxane, 323.15 K): 0.153 | solubility (mole fraction) (in 2-butoxyethanol, 278.15 K): 0.035 | solubility (mole fraction) (in 2-butoxyethanol, 283.15 K): 0.0408 | solubility (mole fraction) (in 2-butoxyethanol, 288.15 K): 0.0458 | solubility (mole fraction) (in 2-butoxyethanol, 293.15 K): 0.0536 | solubility (mole fraction) (in 2-butoxyethanol, 298.15 K): 0.0601 | solubility (mole fraction) (in 2-butoxyethanol, 303.15 K): 0.068 | solubility (mole fraction) (in 2-butoxyethanol, 308.15 K): 0.077 | solubility (mole fraction) (in 2-butoxyethanol, 313.15 K): 0.087 | solubility (mole fraction) (in 2-butoxyethanol, 318.15 K): 0.0989 | solubility (mole fraction) (in 2-butoxyethanol, 323.15 K): 0.11 | solubility (mole fraction) (in 2-ethoxyethanol, 278.15 K): 0.0699 | solubility (mole fraction) (in 2-ethoxyethanol, 283.15 K): 0.0774 | solubility (mole fraction) (in 2-ethoxyethanol, 288.15 K): 0.0856 | solubility (mole fraction) (in 2-ethoxyethanol, 293.15 K): 0.093 | solubility (mole fraction) (in 2-ethoxyethanol, 298.15 K): 0.101 | solubility (mole fraction) (in 2-ethoxyethanol, 303.15 K): 0.112 | solubility (mole fraction) (in 2-ethoxyethanol, 308.15 K): 0.121 | solubility (mole fraction) (in 2-ethoxyethanol, 313.15 K): 0.132 | solubility (mole fraction) (in 2-ethoxyethanol, 318.15 K): 0.144 | solubility (mole fraction) (in 2-ethoxyethanol, 323.15 K): 0.158 | solubility (mole fraction) (in 2-methoxyethanol, 278.15 K): 0.106 | solubility (mole fraction) (in 2-methoxyethanol, 283.15 K): 0.115 | solubility (mole fraction) (in 2-methoxyethanol, 288.15 K): 0.122 | solubility (mole fraction) (in 2-methoxyethanol, 293.15 K): 0.131 | solubility (mole fraction) (in 2-methoxyethanol, 298.15 K): 0.141 | solubility (mole fraction) (in 2-methoxyethanol, 303.15 K): 0.154 | solubility (mole fraction) (in 2-methoxyethanol, 308.15 K): 0.164 | solubility (mole fraction) (in 2-methoxyethanol, 313.15 K): 0.179 | solubility (mole fraction) (in 2-methoxyethanol, 318.15 K): 0.188 | solubility (mole fraction) (in 2-methoxyethanol, 323.15 K): 0.205 | solubility (mole fraction) (in 2-propoxyethanol, 278.15 K): 0.0446 | solubility (mole fraction) (in 2-propoxyethanol, 283.15 K): 0.0502 | solubility (mole fraction) (in 2-propoxyethanol, 288.15 K): 0.0566 | solubility (mole fraction) (in 2-propoxyethanol, 293.15 K): 0.0645 | solubility (mole fraction) (in 2-propoxyethanol, 298.15 K): 0.0718 | solubility (mole fraction) (in 2-propoxyethanol, 303.15 K): 0.0804 | solubility (mole fraction) (in 2-propoxyethanol, 308.15 K): 0.0896 | solubility (mole fraction) (in 2-propoxyethanol, 313.15 K): 0.0998 | solubility (mole fraction) (in 2-propoxyethanol, 318.15 K): 0.112 | solubility (mole fraction) (in 2-propoxyethanol, 323.15 K): 0.123 | solubility (mole fraction) (in acetone, 278.15 K): 0.0266 | solubility (mole fraction) (in acetone, 283.15 K): 0.0317 | solubility (mole fraction) (in acetone, 288.15 K): 0.0374 | solubility (mole fraction) (in acetone, 293.15 K): 0.0447 | solubility (mole fraction) (in acetone, 298.15 K): 0.052 | solubility (mole fraction) (in acetone, 303.15 K): 0.0606 | solubility (mole fraction) (in acetone, 308.15 K): 0.0706 | solubility (mole fraction) (in acetone, 313.15 K): 0.0817 | solubility (mole fraction) (in acetone, 318.15 K): 0.0938 | solubility (mole fraction) (in acetone, 323.15 K): 0.108 | solubility (mole fraction) (in acetonitrile, 278.15 K): 0.0165 | solubility (mole fraction) (in acetonitrile, 283.15 K): 0.0201 | solubility (mole fraction) (in acetonitrile, 288.15 K): 0.0223 | solubility (mole fraction) (in acetonitrile, 293.15 K): 0.0258 | solubility (mole fraction) (in acetonitrile, 298.15 K): 0.0298 | solubility (mole fraction) (in acetonitrile, 303.15 K): 0.034 | solubility (mole fraction) (in acetonitrile, 308.15 K): 0.0387 | solubility (mole fraction) (in acetonitrile, 313.15 K): 0.0443 | solubility (mole fraction) (in acetonitrile, 318.15 K): 0.0505 | solubility (mole fraction) (in acetonitrile, 323.15 K): 0.0587 | solubility (mole fraction) (in ethanol, 278.15 K): 0.0303 | solubility (mole fraction) (in ethanol, 283.15 K): 0.0352 | solubility (mole fraction) (in ethanol, 288.15 K): 0.042 | solubility (mole fraction) (in ethanol, 293.15 K): 0.051 | solubility (mole fraction) (in ethanol, 298.15 K): 0.0592 | solubility (mole fraction) (in ethanol, 303.15 K): 0.0703 | solubility (mole fraction) (in ethanol, 308.15 K): 0.082 | solubility (mole fraction) (in ethanol, 313.15 K): 0.0969 | solubility (mole fraction) (in ethanol, 318.15 K): 0.112 | solubility (mole fraction) (in ethanol, 323.15 K): 0.131 | solubility (mole fraction) (in ethyl acetate, 278.15 K): 0.00721 | solubility (mole fraction) (in ethyl acetate, 283.15 K): 0.00912 | solubility (mole fraction) (in ethyl acetate, 288.15 K): 0.0112 | solubility (mole fraction) (in ethyl acetate, 293.15 K): 0.0134 | solubility (mole fraction) (in ethyl acetate, 298.15 K): 0.0156 | solubility (mole fraction) (in ethyl acetate, 303.15 K): 0.0192 | solubility (mole fraction) (in ethyl acetate, 308.15 K): 0.0229 | solubility (mole fraction) (in ethyl acetate, 313.15 K): 0.0271 | solubility (mole fraction) (in ethyl acetate, 318.15 K): 0.0323 | solubility (mole fraction) (in ethyl acetate, 323.15 K): 0.0373 | solubility (mole fraction) (in isopropanol, 278.15 K): 0.0197 | solubility (mole fraction) (in isopropanol, 283.15 K): 0.0238 | solubility (mole fraction) (in isopropanol, 288.15 K): 0.0287 | solubility (mole fraction) (in isopropanol, 293.15 K): 0.0338 | solubility (mole fraction) (in isopropanol, 298.15 K): 0.0403 | solubility (mole fraction) (in isopropanol, 303.15 K): 0.0495 | solubility (mole fraction) (in isopropanol, 308.15 K): 0.0577 | solubility (mole fraction) (in isopropanol, 313.15 K): 0.0672 | solubility (mole fraction) (in isopropanol, 318.15 K): 0.0774 | solubility (mole fraction) (in isopropanol, 323.15 K): 0.089 | solubility (mole fraction) (in methanol, 278.15 K): 0.0706 | solubility (mole fraction) (in methanol, 283.15 K): 0.0796 | solubility (mole fraction) (in methanol, 288.15 K): 0.0896 | solubility (mole fraction) (in methanol, 293.15 K): 0.102 | solubility (mole fraction) (in methanol, 298.15 K): 0.111 | solubility (mole fraction) (in methanol, 303.15 K): 0.128 | solubility (mole fraction) (in methanol, 308.15 K): 0.138 | solubility (mole fraction) (in methanol, 313.15 K): 0.151 | solubility (mole fraction) (in methanol, 318.15 K): 0.167 | solubility (mole fraction) (in methanol, 323.15 K): 0.181 | solubility (mole fraction) (in n-propanol, 278.15 K): 0.0192 | solubility (mole fraction) (in n-propanol, 283.15 K): 0.0231 | solubility (mole fraction) (in n-propanol, 288.15 K): 0.0274 | solubility (mole fraction) (in n-propanol, 293.15 K): 0.034 | solubility (mole fraction) (in n-propanol, 298.15 K): 0.0401 | solubility (mole fraction) (in n-propanol, 303.15 K): 0.0488 | solubility (mole fraction) (in n-propanol, 308.15 K): 0.0572 | solubility (mole fraction) (in n-propanol, 313.15 K): 0.0651 | solubility (mole fraction) (in n-propanol, 318.15 K): 0.0744 | solubility (mole fraction) (in n-propanol, 323.15 K): 0.0885
